Experimental data: patent US10722466B2, “Liposomal formulation for use in the treatment of cancer” (LES LABORATOIRES SERVIER, priority 2016, dated 2020)

Tests used:
[1] = Aqueous solubility of Compound A; type: physicochemical; details: all pHs, including physiologically relevant pHs
[2] = In vitro release assay: release of Compound A from SUV to acceptor multilamellar vesicles (MLVs); type: physicochemical
Source text: The aim of this experiment was to investigate the release rate of Compound A from small unilamellar vesicles (SUV; used here as a drug carrier system, see Example 3A) to large multilamellar vesicles (MLVs) consisting of egg phospholipids, and used as a lipophilic acceptor for drug released (see Shabbits J. A., Chiu G. N. and Mayer L. D. “Development of an in vitro drug release assay that accurately predicts in vivo drug retention for liposome-based delivery systems” Journal of Controlled Release 2002, 84(3), 161-170).
Multilamellar vesicles were prepared by using the Film-Hydration method. In short, egg phospholipids (Lipoid E 80 S) were weighed out and completely dissolved in organic solvent (EtOH/DCM at 4:1 v/v) to assure a homogenous mixture of all components.
Next, the organic solvent was removed using rotary evaporation (first step: 200 mbar, 50° C., 2 hours; second step: 30 mbar, 50° C., 45 minutes) to yield a homogenous lipid film. To assure complete removal of the organic solvent, the flask was flushed with nitrogen. Next, the film was rehydrated using phosphate buffered saline (PBS, pH 7.4) yielding MLVs and upon complete rehydration the MLVs were exposed to sonication for 15 minutes.
To have the MLVs resuspended in the same buffer system as the SUVs, the suspension was centrifuged for 10 minutes at 14,000 g, the supernatant (PBS) was removed, and replaced by sucrose histidine buffer. Lastly, the mixture was vortexed thoroughly to assure complete redispersion of the MLVs in the new medium before starting the release experiment.
SUVs (donor) were mixed with MLVs (acceptor) in a 25 ml Erlenmeyer flask with a stopper under stirring (500 rpm) at various ratios (1:40, 1:100, 1:200, 1:500; SUV:MLV v/v). 1 ml samples were taken at different time points and immediately centrifuged (14′000 rpm, 10 minutes) to separate the MLVs from SUVs for further processing. FIG. 3 herein is a schematic depicting the principle of the MLV-based release assay.
Next, the MLV portion was removed via suction and 50 μl of the SUV portion were mixed with 450 μl of ACN:H2O for HPLC sample preparation. The sample was then centrifuged (14′000 rpm, 10 minutes), the supernatant was filtered using a 0.22 μm filter and injected into the HPLC for analysis.
A high performance liquid chromatography (HPLC) system with UV detection including the following equipment settings and solvent systems were employed:
Compound A release was measured using MLVs as the acceptor compartment. Here, Compound A-loaded SUVs (7.5 mg/ml) were added to these MLVs at different ratios (v/v).
Note: For all MLV release experiments, the maximum concentration (maxC=100%) was obtained by diluting the 7.5 mg/ml loaded SUVs 1 to 40, 1 to 100, 1 to 200, or 1 to 500 (v/v) in Sucrose Histidine buffer instead of MLVs.

## COc1ccccc1-c1nccc(COc2ccccc2CC(Oc2ncnc3sc(-c4ccc(F)cc4)c(-c4ccc(OCCN5CCN(C)CC5)c(Cl)c4C)c23)C(=O)O)n1 [Compound A, (2R)-2-{[(5Sa)-5-{3-chloro-2-methyl-4-[2-(4-methylpiperazin-1-yl)ethoxy]phenyl}-6-(4-fluorophenyl)thieno[2,3-d]pyrimidin-4-yl]oxy}-3-(2-{[2-(2-methoxyphenyl)pyrimidin-4-yl]methoxy}phenyl)propanoic acid]
[1]
  Aqueous solubility: limited aqueous solubility across all pHs
[2]; SUV:MLV 1 to 40 (v/v), after 2 minutes, 7.5 mg/ml loaded SUVs
  Initial amount of Compound A still detectable in the SUV portion: about 44%
[2]; SUV:MLV 1 to 40 (v/v), t=2 minutes
  Compound A released or transferred to the acceptor MLV: ~60%
[2]; SUV:MLV 1 to 100 (v/v), t=2 minutes
  Compound A released to the acceptor MLV: ~70%
[2]; SUV:MLV 1 to 200 (v/v), t=2 minutes
  Compound A released to the acceptor MLV: ~80%
[2]; SUV:MLV 1 to 500 (v/v), t=2 minutes
  Compound A released to the acceptor MLV: ~90%
[2]; after only 2 minutes
  Drug substance released (maximum over the ratios tested): up to 90%
